Laboratory results from patent EP0837870B1, “SYNTHETIC MODIFICATION TO SPINOSYN COMPOUNDS” (Dow AgroSciences LLC, priority 1995, dated 1997).
Counter-ions that a name gives are not always drawn.

Key:
Type in all cases: in vivo
[1] = test system: tobacco budworm (Heliothis virescens); experiment: Activity against tobacco budworm (TBW), sprayed diet cups with eggs
Experimental: (§1) In conducting evaluations of insecticidal activity, each test compound was formulated as a 400 ppm solution, and this solution was then diluted with water to give lesser concentrations. The 400 ppm solution was prepared by combining 19.2 mL of .05% solution of Tween 20 (polyoxyethylene (20) sorbitan monolaurate) in water with a solution of 8 mg of the compound in .8 mL of acetone/EtOH (9/1).
Activity against tobacco budworm (Heliothis virescens) was evaluated as follows. A general purpose lepidoptera artificial diet was diluted to half strength with a 5% non nutritive agar. 8 mL of this diet material was dispensed into each one ounce diet cup. One hour prior to treatment 18 to 20 eggs were dispensed onto the diet surface. The cups were then sprayed with formulated material through a flat-fan nozzle. […] Treated cups were air dried prior to sealing with plastic caps. The cups were held for 6 days at room temperature. Activity was then rated based on the total number of live and dead larvae, and on the size of live larvae.

[2] = test system: Stomoxys calcitrans (stable fly); experiment: Adult stable fly test, serum-saturated dental wick; details: readings at 24 and 48 hours, which one is reported is not stated; for Percentage of ASF killed at 100 ppm: 100 ppm in bovine serum; for Percentage of ASF killed at 10 ppm: 10 ppm in bovine serum
Experimental: The compound to be evaluated was dissolved in 1 part acetone/1 part ethanol to provide a stock solution of the compound at a concentration of 5,000 ppm; this solution was shaken for 15 minutes on a sonicator. Portions of the stock solution were placed in 15 ml test tubes, and portions of bovine serum were added to provide the desired dilution of the test compound. A dental wick was placed in each test tube and the serum allowed to saturate the wick.
For the adult stable fly test, the saturated wick was placed on a filter paper in a petri dish, and approximately 10 chilled live, hungry stable flies were placed on the center of the dish bottom. The dish was covered and allowed to incubate at 27°C and 60% relative humidity for 48 hours. Mortality readings were made at each of 24 and 48 hours, and adjusted for any mortality in the vehicle control to determine percent efficacy against adult stable fly.

[3] = test system: two spotted spider mite (Tetranychus urticae); experiment: Activity against two spotted spider mite (TSSM), sprayed infested squash plants; details: RATE 400 (ppm), three days after treatment, 4320 min
Experimental: as §1
Activity against cotton aphid (Aphis gossypii) and two spotted spider mite (Tetranychus urticae) was evaluated as follows. Golden crookneck squash plants were grown to the expanded cotyledon stage (about 6 to 8 days). The plants were infested with cotton aphids and two spotted spider mites 16 to 24 hours before application of the test material by transfer of infested foliage cut from a stock colony. Immediately prior to spray application of the test material the transfer foliage is removed from the squash plants. The test is run using concentrations of 400 ppm and 50 ppm. The plants are sprayed with test solution using an atomizing sprayer at 17 psi. Both surfaces of the leaves are covered until runoff, and then allowed to dry. Activity of each compound was determined three days after treatment. Activity was rated as a percent based on the mites/aphids present in plants sprayed with solvent alone.

Compound: 5,6-cis Dihydroxy-5,6-dihydro Spinosyn B [Example F12]
- % MORTALITY ([1]; RATE 400 (ppm), 6 days): 100%
- Percentage of ASF killed at 100 ppm [2]: 100%

Compound: CCC1CCCC(OC2CCC(N(C)C)C(C)O2)C(C)C(=O)C2=CC3C4CC(OC5OC(C)C(OC)C(OC)C5OC)CC4[C@@H](S(C)(=O)=O)[C@H](OC(C)=O)C3C2CC(=O)O1 (stereo partly drawn) [Example F17, (5R,6R)-5-Acetoxy-6-methylsulfonyl Spinosyn A]
- % MORTALITY ([1]; RATE 400 (ppm), 6 days): 100%
- Percentage of ASF killed at 100 ppm [2]: 100%

Compound: (5R,6R)-6-Bromo-5-hydroxy Spinosyn J [Example F18]
- % MORTALITY ([1]; RATE 400 (ppm), 6 days): 100%
- Percentage of ASF killed at 100 ppm [2]: 100%

Compound: CCC1CCCC(O[Si](C)(C)C)C(C)C(=O)C2=CC3C4CC(OC5OC(C)C(OC)C(OC)C5OC)CC4C4OC4C3C2CC(=O)O1 [Example E2, (5S,6R)-5,6-Epoxy-17-O-trimethylsilyl Spinosyn A 17-Psa]
- % MORTALITY ([1]; RATE 80 (unit not given), 8640 min): 35%

Compound: CCCCOC1C(OC)C(C)OC(OC2CC3CCC4C5CC(=O)OC(CC)CCCC(OC6CCC(N(C)C)C(C)O6)C(C)C(=O)C5=CC4C3C2)C1OC (stereo not shown) [Example A5, 5,6-Dihydro-3'-O-n-butyl Spinosyn J]
- % MORTALITY ([1]; RATE 400 (ppm), 6 days): 100%

Compound: 5,6-Dihydro Spinosyn J [Example F21]
- % MORTALITY ([1]; RATE 400 (ppm), 6 days): 100%
- Percentage of ASF killed at 100 ppm [2]: 100%

Compound: (5R,6R)-5,6-dibromo Spinosyn B [Example F11b]
- % MORTALITY ([1]; RATE 400 (ppm), 6 days): 100%
- Percentage of ASF killed at 100 ppm [2]: 100%

Compound: CC[C@H]1CCC[C@H](O[C@H]2CC[C@H](N(C)C)[C@@H](C)O2)[C@@H](C)C(=O)[C@@H]2C[C@@H]3[C@@H](CC[C@@H]4C[C@@H](O[C@@H]5O[C@@H](C)[C@H](OC)[C@@H](OC)[C@H]5OC)C[C@H]43)[C@@H]2CC(=O)O1 [Example D2, (14R)-5,6,13,14-Tetrahydro Spinosyn A]
- Percentage of ASF killed at 10 ppm [2]: <50%
- Percentage of ASF killed at 100 ppm [2]: 100%

Compound: CCC1CCCC(OC2CCC(N(C)C)C(C)O2)C(C)C(=O)C2=CC3C4CC(OC5OC(C)C(OC)C(OC)C5OC)CC4[C@@H](SC)[C@H](OC(C)=O)C3C2CC(=O)O1 (stereo partly drawn) [Example F16, (5R,6R)-5-Acetoxy-6-thiomethoxy Spinosyn A]
- % MORTALITY ([1]; RATE 400 (ppm), 6 days): 100%
- Percentage of ASF killed at 100 ppm [2]: 100%

Compound: CC[C@H]1CCC[C@H](O[C@H]2CC[C@H](N(C)C)[C@@H](C)O2)[C@@H](C)C(=O)C2=C[C@H]3[C@@H]4C[C@H](O[C@@H]5O[C@@H](C)[C@H](OC)[C@@H](OC)[C@H]5OC)C[C@H]4CC[C@H]3[C@@H]2CC(=O)O1 [Example F23, 5,6-Dihydro Spinosyn A Hemiglutarate salt]
- % MORTALITY ([1]; RATE 400 (ppm), 6 days): 100%
- % MORTALITY [3]: 100%
- Percentage of ASF killed at 100 ppm [2]: 100%

Compound: CCC1CCCC(OC2CCC(N(C)C)C(C)O2)C(C)C(=O)C2=CC3C4CC(OC5OC(C)C(OC)C(OC)C5OC)CC4[C@@]4(C)O[C@H]4C3C2CC(=O)O1 (stereo partly drawn) [Example F8a, (5S,6R)-Epoxy Spinosyn D]
- % MORTALITY ([1]; RATE 400 (ppm), 6 days): 100%
- % MORTALITY [3]: 90%

Compound: CCC1CCCC(OC2CCC(N(C)C)C(C)O2)C(C)C(=O)C2=CC3C4CC(OC5OC(C)C(OC)C(OC)C5OC)CC4[C@@H](OC(=O)C(Cl)(Cl)Cl)[C@@H](OC(=O)C(Cl)(Cl)Cl)C3C2CC(=O)O1 (stereo partly drawn) [Example F13b, (5S,6R)-5,6-bis(trichloroacetoxy) Spinosyn A]
- % MORTALITY ([1]; RATE 400 (ppm), 6 days): 60%

Compound: CCC1CCCC(OC2CCC(N(C)C)C(C)O2)C(C)C(=O)C2=CC3C4CC(OC5OC(C)C(OC)C(OC)C5OC(=O)c5ccc(C(F)(F)F)cc5)CC4[C@@]4(C)O[C@H]4C3C2CC(=O)O1 (stereo partly drawn) [Example A2, (5S,6R)-Epoxy-2'-O-(p-trifluoromethyl)benzoyl Spinosyn Q]
- % MORTALITY ([1]; RATE 400 (ppm), 6 days): 100%
- Percentage of ASF killed at 100 ppm [2]: 100%

Compound: 5,6-Dihydro Derivative of Compound 9-O-(2,3,4-Tri-O-ethyl-α-L-rhamnosyl) Spinosyn A 9-Psa [Example A1]
- % MORTALITY ([1]; RATE 400 (ppm), 6 days): 100%
- % MORTALITY [3]: 100%

Compound: CCC1CCCC(OC2CCC(N(C)C)C(C)O2)C(C)C(=O)[C@H]2CC3C4CC(OC5OC(C)C(OC)CC5OC)CC4CCC3C2CC(=O)O1 (stereo partly drawn) [Example D3, (14S)-5,6,13,14-Tetrahydro-3'-deoxy Spinosyn J]
- % MORTALITY ([1]; RATE 64 (unit not given), 8640 min): 95%
- Percentage of ASF killed at 100 ppm [2]: 100%

Compound: CCC1CCCC(OC2CCC(N(C)C)C(C)O2)C(C)C(=O)C2=CC3C4CC(OC5OC(C)C(OC)C(OC)C5O)CC4CCC3C2CC(=O)O1 (stereo not shown) [Example F22, 5,6-Dihydro Spinosyn H]
- % MORTALITY ([1]; RATE 400 (ppm), 6 days): 100%
- Percentage of ASF killed at 100 ppm [2]: 100%

Compound: CCC1CCCC(OC2CCC(N(C)C)C(C)O2)C(C)C(=O)C2=CC3C4CC(OC5OC(C)C(OC)C(OC)C5OC)CC4C[C@H](O)C3C2CC(=O)O1 (stereo partly drawn) [Example F15a, (5S)-5,6-dihydro-5-hydroxy Spinosyn A]
- % MORTALITY ([1]; RATE 400 (ppm), 6 days): 100%

Compound: CC[C@H]1CCC[C@H](O)[C@@H](C)C(=O)C2=C[C@H]3[C@@H]4C[C@H](O[C@@H]5O[C@@H](C)[C@H](OC)[C@@H](OC)[C@H]5OC)C[C@H]4CC[C@H]3[C@@H]2CC(=O)O1 [Example F20, 5,6-Dihydro Spinosyn A 17-Psa]
- Percentage of ASF killed at 100 ppm [2]: <50%

Compound: CCCOC1C(OC)C(C)OC(OC2CC3CCC4C5CC(=O)OC(CC)CCCC(OC6CCC(N(C)C)C(C)O6)C(C)C(=O)C5=CC4C3C2)C1OC.CCCOC1C(OC)C(C)OC(OC2CC3CCC4C5CC(=O)OC(CC)CCCC(OC6CCC(N(C)C)C(C)O6)C(C)C(=O)C5=CC4C3C2)C1OC.O=C(O)CCCC(=O)O (stereo not shown) [Example A6, 5,6-Dihydro-3'-O-n-propyl Spinosyn J Hemiglutarate salt]
- % MORTALITY ([1]; RATE 400 (ppm), 6 days): 100%
- % MORTALITY [3]: 100%
- Percentage of ASF killed at 100 ppm [2]: 100%

Compound: CCC1CCCC(OC2CCC(N(C)C)C(C)O2)C(C)C(=O)C2=CC3C4CC(OC5OC(C)C(OC)C(OC)C5OC)CC4[C@@H](Br)[C@H](Br)C3C2CC(=O)O1 (stereo partly drawn) [Example F14, (5R,6R)-5,6-Dibromo Spinosyn A]
- % MORTALITY ([1]; RATE 400 (ppm), 6 days): 60%
- Percentage of ASF killed at 100 ppm [2]: 100%

Compound: CCC1CCCC(OC2CCC(N(C)C)C(C)O2)C(C)C(=O)C2=CC3C4CC(O)CC4CCC3C2CC(=O)O1 (stereo not shown) [Example F19, 5,6-Dihydro Spinosyn A 9-Psa]
- % MORTALITY ([1]; RATE 400 (ppm), 6 days): 100%

Compound: (5S,6R)-Epoxy-Spinosyn Q [Example F25]
- % MORTALITY ([1]; RATE 400 (ppm), 6 days): 100%

Compound: CC[C@H]1CCC[C@H](O[C@H]2CCC(=O)[C@@H](C)O2)[C@@H](C)C(=O)C2=C[C@H]3[C@@H]4C[C@H](O[C@@H]5O[C@@H](C)[C@H](OC)[C@@H](OC)[C@H]5OC)C[C@H]4[C@@H](Br)[C@H](Br)[C@H]3[C@@H]2CC(=O)O1 [Example F11a, (5R,6R)-5,6-dibromo-4''-keto Spinosyn A]
- Percentage of ASF killed at 100 ppm [2]: <50%

Compound: dichloroketene acetal of (5S,6R)-5,6-dihydroxy Spinosyn A [Example F13a]
- % MORTALITY ([1]; RATE 400 (ppm), 6 days): 100%

Compound: CCOC1C(OC)C(C)OC(OC2CC3CCC4C5CC(=O)OC(CC)CCCC(OC6CCC(N(C)C)C(C)O6)C(C)C(=O)C5=CC4C3C2)C1OC (stereo not shown) [Example A3, 5,6-Dihydro-3'-O-ethyl Spinosyn J]
- % MORTALITY ([1]; RATE 400 (ppm), 6 days): 100%
- % MORTALITY [3]: 100%

Compound: CC[C@H]1CCC[C@H](O[C@H]2CC[C@H](NC)[C@@H](C)O2)[C@@H](C)C(=O)C2=C[C@H]3[C@@H]4C[C@H](O[C@@H]5O[C@@H](C)[C@H](OC)[C@@H](OC)[C@H]5OC)C[C@H]4CC[C@H]3[C@@H]2CC(=O)O1 [Example F24, 5,6-Dihydro Spinosyn B]
- % MORTALITY ([1]; RATE 400 (ppm), 6 days): 100%
- % MORTALITY [3]: 100%
- Percentage of ASF killed at 100 ppm [2]: 100%

Compound: CCCOC1C(OC2CC3CCC4C5CC(=O)OC(CC)CCCC(OC6CCC(N(C)C)C(C)O6)C(C)C(=O)C5=CC4C3C2)OC(C)C(OC)C1OC (stereo not shown) [Example A8, 5,6-Dihydro-2'-O-n-propyl Spinosyn H]
- % MORTALITY ([1]; RATE 400 (ppm), 6 days): 100%
- % MORTALITY [3]: 100%
- Percentage of ASF killed at 100 ppm [2]: 100%

Compound: CCCOC1C(OC)C(C)OC(OC2CC3CCC4C5CC(=O)OC(CC)CCCC(OC6CCC(N(C)C)C(C)O6)C(C)C(=O)C5=CC4C3C2)C1OC (stereo not shown) [Example A4, 5,6-Dihydro-3'-O-n-propyl Spinosyn J]
- % MORTALITY ([1]; RATE 400 (ppm), 6 days): 100%
- % MORTALITY [3]: 100%

Compound: CC[C@H]1CCC[C@H](O)[C@@H](C)C(=O)C2=C[C@H]3[C@@H]4C[C@H](O[C@@H]5O[C@@H](C)[C@H](OC)[C@@H](OC)[C@H]5OC)C[C@H]4C(Br)C(Br)[C@H]3[C@@H]2CC(=O)O1 (stereo partly shown) [Example F5, 5,6-Dibromo Spinosyn A 17-Psa]
- Percentage of ASF killed at 10 ppm [2]: <50%
